Data from PubChem BioAssay AID328 (DTP/NCI, 2004).
Several values for one entry are separate records, joined by “and”; a condition that tells them apart may be missing. Equal values may be shown once. Toxic doses and inconclusive results are not listed. The calls were made as follows: active = survival T/C of 150% or more; inactive = T/C below 125% in these data.

System: BDF1 mice, P388 leukemia ip, median survival T/C
Assay: NCI In Vivo Anticancer Drug Screen. Data for tumor model P388 Leukemia (intraperitoneal) in B6D2F1 (BDF1) mice
Conditions: endpoint: median survival time, higher = longer survival
Summary of the method: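 Survival ratio, drug arm over vehicle arm, in mice with a transplanted tumour.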

[1] = dose: 100.0 mg/kg/injection, schedule: Q04DX003 (ip), vehicle: saline
[2] = dose: 200.0 mg/kg/injection, schedule: Q04DX003 (ip), vehicle: saline
[3] = dose: 200.0 mg/kg/injection, schedule: Q01DX009 (ip), vehicle: saline with Tween-80

Measured: T/C

CC(=O)CC(C)=O.CC(=O)CC(C)=O.[NH-]C1CCCCC1.[NH-]C1CCCCC1.[Ni+2]
inactive: dose: 19.0 mg/kg/injection, schedule: Q04DX003 (ip), vehicle: saline with Tween-80 104 % of control | dose: 20.0 mg/kg/injection, schedule: Q04DX003 (ip), vehicle: saline 100 % of control | dose: 37.5 mg/kg/injection, schedule: Q04DX003 (ip), vehicle: saline with Tween-80 118 % of control | dose: 40.0 mg/kg/injection, schedule: Q04DX003 (ip), vehicle: saline 112 % of control

CCCC(C1=CC(C)(C)c2ccccc2C1=O)c1ccc(Br)cc1 (configuration not stated)
inactive: dose: 75.0 mg/kg/injection, schedule: Q01DX009 (ip), vehicle: Klucel (hydroxypropylcellulose) (HPC) 109 % of control | dose: 100.0 mg/kg/injection, schedule: Q01DX009 (ip), vehicle: Klucel (hydroxypropylcellulose) (HPC) 100 % of control | dose: 100.0 mg/kg/injection, schedule: Q04DX003 (ip), vehicle: Klucel (hydroxypropylcellulose) (HPC) 100 % of control | dose: 150.0 mg/kg/injection, schedule: Q01DX009 (ip), vehicle: Klucel (hydroxypropylcellulose) (HPC) 113 % of control | dose: 200.0 mg/kg/injection, schedule: Q01DX009 (ip), vehicle: Klucel (hydroxypropylcellulose) (HPC) 95 % of control and 100 % of control | dose: 200.0 mg/kg/injection, schedule: Q04DX003 (ip), vehicle: Klucel (hydroxypropylcellulose) (HPC) 100 % of control | dose: 300.0 mg/kg/injection, schedule: Q01DX009 (ip), vehicle: Klucel (hydroxypropylcellulose) (HPC) 100 % of control | dose: 400.0 mg/kg/injection, schedule: Q01DX009 (ip), vehicle: Klucel (hydroxypropylcellulose) (HPC) 95 % of control | dose: 400.0 mg/kg/injection, schedule: Q04DX003 (ip), vehicle: Klucel (hydroxypropylcellulose) (HPC) 100 % of control

O=C1C2C3CC4C2C(=O)C2C1C3C42 (configuration not stated)
inactive: [1] 90 % of control | [2] 102 % of control | dose: 400.0 mg/kg/injection, schedule: Q04DX003 (ip), vehicle: saline 90 % of control

Cc1cc(-c2ccccc2)[n+](C)n1C
inactive: dose: 12.5 mg/kg/injection, schedule: Q01DX009 (ip), vehicle: saline with Tween-80 98 % of control | dose: 25.0 mg/kg/injection, schedule: Q01DX009 (ip), vehicle: saline with Tween-80 118 % of control

CCC(CO)NC(=O)/C=C/c1ccccc1 (configuration not stated)
inactive: [3] 91 % of control | dose: 400.0 mg/kg/injection, schedule: Q01DX009 (ip), vehicle: saline with Tween-80 91 % of control

CC(C)C1=CC2=CC(=O)C3C(C)(C)CCCC3(C)C2=C(O)C1=O (configuration not stated)
inactive: dose: 2.0 mg/kg/injection, schedule: Q01DX010 (ip), vehicle: carboxymethylcellulose (CMC) 105 % of control | dose: 5.0 mg/kg/injection, schedule: Q01DX010 (ip), vehicle: carboxymethylcellulose (CMC) 105 % of control | dose: 5.0 mg/kg/injection, schedule: Q01DX010 (ip), vehicle: other 115 % of control | dose: 10.0 mg/kg/injection, schedule: Q01DX010 (ip), vehicle: carboxymethylcellulose (CMC) 100 % of control | dose: 10.0 mg/kg/injection, schedule: Q01DX010 (ip), vehicle: other 115 % of control | dose: 20.0 mg/kg/injection, schedule: Q01DX010 (ip), vehicle: carboxymethylcellulose (CMC) 120 % of control

N#Cc1cnc2nc(N)nc(N)c2c1
inactive: dose: 50.0 mg/kg/injection, schedule: Q01DX009 (ip), vehicle: saline 104 % of control | dose: 100.0 mg/kg/injection, schedule: Q01DX009 (ip), vehicle: saline 107 % of control | [1] 108 % of control | dose: 200.0 mg/kg/injection, schedule: Q01DX009 (ip), vehicle: saline 117 % of control | [2] 116 % of control

Cc1ccc(C(=O)C2C(c3ccccc3)N2Cc2ccccc2)cc1 (configuration not stated)
inactive: dose: 100.0 mg/kg/injection, schedule: Q04DX003 (ip), vehicle: saline with Tween-80 94 % of control and 99 % of control | dose: 200.0 mg/kg/injection, schedule: Q04DX003 (ip), vehicle: saline with Tween-80 109 % of control and 92 % of control | dose: 400.0 mg/kg/injection, schedule: Q04DX003 (ip), vehicle: saline with Tween-80 99 % of control and 87 % of control

O=S(=O)(Nc1ccccn1)c1ccc(N(CCCl)CCCl)cc1
inactive: dose: 50.0 mg/kg/injection, schedule: Q01DX009 (ip), vehicle: saline with Tween-80 100 % of control | dose: 100.0 mg/kg/injection, schedule: Q01DX009 (ip), vehicle: saline with Tween-80 95 % of control | [3] 90 % of control

CC(C)(C)[Si](C)(C)OC(=O)Nc1ccc(N(CCCl)CCCl)cc1
inactive: dose: 0.05 mg/kg/injection, schedule: Q01DX009 (ip), vehicle: saline with Tween-80 104 % of control | dose: 0.07 mg/kg/injection, schedule: Q01DX009 (ip), vehicle: saline with Tween-80 114 % of control | dose: 0.11 mg/kg/injection, schedule: Q01DX009 (ip), vehicle: saline with Tween-80 117 % of control | dose: 0.16 mg/kg/injection, schedule: Q01DX009 (ip), vehicle: saline with Tween-80 108 % of control | dose: 0.32 mg/kg/injection, schedule: Q01DX009 (ip), vehicle: saline with Tween-80 107 % of control
